# Test system: DR5 promoter associated with acetylated histones H3 and H4
# Assay: ChIP assay, DR5 promoter
# Assay type: cell-based, human
# Conditions: 8 hours, Jurkat cells
# Procedure: ChIP analysis was performed by a slight modification of a previously described method. Cells are incubated overnight at a density of 0.25×10^8 cells/ ml at 37° C. with 5% CO2. […] Formaldehyde was then added to the cells to a final concentration of 1%, and the cells are gently shaken at room temperature for 10 minutes. Following this, the cells are pelleted, suspended in 1 mL of ice-cold PBS containing protease inhibitors (Complete, Boehringer Mannheim). Cells are again pelleted, re-suspended in 0.5 mL of SDS lysis buffer (1% SDS/1.0 mM EDTA/50 mM Tris.HCl, pH 8.1) and incubated on ice for 20 minutes. Lysates are sonicated with 15-second bursts. Debris was removed from samples by centrifugation for 20 minutes at 15,000×g at 4° C. An aliquot of the chromatin preparation (100 μL) was set aside and designated as Input Fraction. […] Immunoprecipitated DNA (both immunoprecipitation samples and Input) was recovered by phenol/chloroform extraction and ethanol precipitation and analyzed by PCR. […] The optimal reaction conditions for PCR are determined for each primer pair. […] The ratio between the immunoprecipitated DNA and Input DNA was calculated for each treatment and primer set. The fold increases after treatment with LAQ824 was calculated from the indicated ratio.
smiles,measurement,setting,value
"O=C(/C=C/c1ccc(CN(CCO)CCc2c[nH]c3ccccc23)cc1)NO [LAQ824, N-hydroxy-3-[4-[[(2-hydroxyethyl)[2-(1H-indol-3-yl)ethyl]-amino]methyl]phenyl]-2E-2-propenamide]",increase of DR5 promoter associated with acetylated histones H3 and H4,first of 'respectively' (100 nM / H3),3.3 fold
same,increase of DR5 promoter associated with acetylated histones H3 and H4,second of 'respectively' (200 nM / H4),5.7 fold

# Source: US20070258972A1, “Combination of a Histone Deacetylase Inhibitor with a Death Receptor Ligand” (priority 2003, published 2007)
